Laboratory results as given in patent publication US20070117813A1 (priority 2003, published 2007).
Read-outs that look alike come from different tables or passages of the source.

How the values were obtained:
Plasmopara viticola = test: Activity against peronospora of grapevines caused by Plasmopara viticola; type: in vivo; settings: grapevines cultivar Riesling
Procedure: The active compounds, separately or jointly, were prepared as a stock solution comprising 0.25% by weight of active compound in acetone or DMSO. 1% by weight of the emulsifier Uniperol® EL (wetting agent having emulsifying and dispersant action based on ethoxylated alkylphenols) was added to this solution, and the mixture was diluted with water to the desired concentration.
Use example 2—Activity against peronospora of grapevines caused by Plasmopara viticola
Leaves of potted grapevines of the cultivar “Riesling” were sprayed to runoff point with an aqueous suspension having the concentration of active compounds stated below. The next day, the undersides of the leaves were inoculated with an aqueous zoospore suspension of Plasmopara viticola. The grapevines were then initially placed in a water-vapor-saturated chamber at 24° C. for 48 hours and then in a greenhouse at temperatures between 20 and 30° C. for 5 days. After this period of time, the plants were, to promote sporangiophore eruption, again placed in a humid chamber for 16 hours. The extent of the development of the infection on the undersides of the leaves was then determined visually.
Evaluation was carried out analogously to example 1.

Phytophthora infestans = type: in vivo; settings: tomato plants, protective spray, assessed after 6 days

Row | Structure (SMILES) | Efficacy in % of the untreated control (Plasmopara viticola; 1 ppm in the spray liquor) | Efficacy in % of the untreated control (Plasmopara viticola; 4 ppm in the spray liquor) | Efficacy in % of the untreated control (Phytophthora infestans; 16 ppm in the spray liquor) | Efficacy in % of the untreated control (Phytophthora infestans; 250 ppm in the spray liquor) | Efficacy in % of the untreated control (Phytophthora infestans; 63 ppm in the spray liquor)
1 | CC(C)(C)C(O)(CCc1ccc(Cl)cc1)Cn1cncn1 (racemic) [II, (R,S)-1-(4-chlorophenyl)-4,4-dimethyl-3-(1H-1,2,4-triazol-1-ylmethyl)pentan-3-ol] | 0% | 28% | 0% | 0% | –
2 | CC1CCN(c2c(-c3c(F)cc(F)cc3F)c(Cl)nc3ncnn23)CC1 [I, 5-chloro-7-(4-methylpiperidin-1-yl)-6-(2,4,6-trifluorophenyl)-[1,2,4]triazolo[1,5-a]pyrimidine] | 4% | 52% | – | – | 9%
3 | CC1CCN(c2c(-c3c(F)cccc3Cl)c(Cl)nc3ncnn23)CC1 [comparative A] | – | – | – | – | 0%
4 | C[C@H](Nc1c(-c2c(F)cc(F)cc2F)c(Cl)nc2ncnn12)C(F)(F)F [comparative B] | – | – | – | – | 9%
